Laboratory results published in patent US20060094780A1, “Novel antibiotic compounds” (priority 2000, published 2006).

Experiments:
Assay type in all cases: cell-based
[1] = tested on: Bacillus subtilis ATCC strain 6633; test: filter paper disk / disc diffusion assay on Bacillus subtilis plate
Method: The Bacillus subtilis ATCC strain 6633 was used at 9.2 mL of a log phase culture with […] per 200 mL of Luria-Bertani medium containing 1.5% (w/v) agar. The plate was incubated at 28° C. for 24 hours and the diameter of the clearing zone was measured. Dilutions of the extract and fractions from HPLC chromatography were tested in the same way. In some cases, fractions from the column were tested by evaporating them to dryness, redissolving in methanol and simply spotting 10 μL of the methanolic sample directly onto the bacteriological plate and proceeding as described.

[2] = tested on: Bacillus subtilis ATCC strain 6633; test: NCCLS broth microdilution test, minimum inhibitory concentration; settings: for minimum inhibitory concentration / MIC: B. subtilis; for antimicrobial activity / potency (in words): against the target organism B. subtilis; for MIC: Bacillus subtilis, ATCC6633
Method: Minimum inhibitory concentrations with Bacillus subtilis ATCC strain 6633 were determined using the National Committee for Clinical Laboratory Standards broth microdilution test (NCCLS, 2000. NCCLS Document M7-A5—Methods for Dilution Antimicrobial Susceptibility Tests for Bacteria that Grow Aerobically, Approved Standard—Fifth Edition). The test was standardised using penicillin G and gentamicin with Staphyloccous aureus ATCC strains 29213 and 25923 and Enterococcus faecalis ATCC strain 29212. Results of standardisation were assessed according to the NCCLS standards (NCCLS, 2000. NCCLS Document M100-S10(M7)—Performance Standards for Antimicrobial Susceptibility Testing; Tenth Informational Supplement (Aerobic Dilution). NCCLS, Wayne, Pa.).

[3] = tested on: NCl-H460, a human-derived small cell lung carcinoma line; test: mammalian cell growth, WST-1 proliferation assay; settings: concentrations up to 100 μg/mL, 19 hours at 37° C.
Method: (§1) Effects on mammalian cell growth were determined by exposing cultures of two mammalian neoplastic cell lines (SP2/0—Ag8, a non-secreting mouse myeloma cell line derived from Balb/C mice, and NCl-H460, a human-derived […] lung carcinoma line) to fixed dilutions of the methanolic extract of N. triodiae or to fixed concentrations of fraction 23, (6) for 19 hours at 37° C. Cells were grown in wells of sterile 96-well tissue culture cluster plates by standard methods. Cell growth was estimated using the Cell Proliferation Reagent WST-1 (Roche Diagnostics) according to the manufacturer's instructions and proliferation data were compared with those from untreated control wells.

[4] = tested on: SP2/0—Ag8, a non-secreting mouse myeloma cell line; test: mammalian cell growth, WST-1 proliferation assay; settings: concentrations up to 30 μg/mL, 19 hours at 37° C.
Method: as §1

[5] = unknown concentration and mass of the compound, disc diffusion assay

With “1(15),8(19)-trinervitadiene-3α,5α,18-triol 3,5,18-triacetate [Compound 10]” the clear zone diameter ([1]; 5 μg of compound, disc diffusion assay) was 11 mm, the minimum inhibitory concentration ([2]; broth microdilution, estimated) was over 50 µg/mL and the “antimicrobial activity / potency (in words)” value [2] was “reduced but detectable antimicrobial activity”. For the same compound, the “antimicrobial activity / potency (in words)” value ([2]; listed as triacetate) was “active, albeit less potent than the diols or triol”.

`C=C1CCC[C@H](C)CCC2=C(C)[C@@H]3[C@H]1C[C@@H](O)[C@]3(CO)[C@@H](O)C2` [Compound 6, 1(15),8(19)-trinervitadiene-3α,5α,18-triol] was tested, and the “antimicrobial activity of extracts and HPLC fractions (in words)” value ([1]; B. subtilis plate test) was “antimicrobial activity was detected”, the minimum inhibitory concentration ([2]; as restated in the discussion) was at most 50 parts per million and the MIC ([2]; broth microdilution, estimated) was at most 50 µg/mL. The “antimicrobial activity / potency (in words)” value [2] was “moderately good antimicrobial potency”, the “inhibitory effect on proliferation of NCl-H460 cells” value [3] was “no detectable inhibitory effect” and the “inhibitory effect on proliferation of SP2/0 cells” value [4] was “no detectable inhibitory effect”.

In the case of `C=C1CCC[C@H](C)CCC2=C(C)[C@@H]3[C@H]1C[C@@H](O)[C@]3(C)[C@@H](O)C2` [Compound 7, 1(15),8(19)-trinervitadiene-3α,5α-diol], the zone of inhibition at 5 µg/disc ([1]; Bacillus subtilis, ATCC6633, 5 μg of compound, disc diffusion assay, read-out: clear zone diameter) is reported as 7 mm, the MIC ([2]; broth microdilution, estimated) is reported as at most 50 µg/mL and the “antimicrobial activity / potency (in words)” value [2] is reported as “reduced but detectable antimicrobial activity”.

`C=C1CCC[C@H](C)CCC2=C(C)[C@@H]3[C@H]1C[C@@H](OC(C)=O)[C@]3(CO)[C@@H](O)C2` [Compound 8, 1(15),8(19)-trinervitadiene-3α,5α,18-triol 5-acetate] was tested, and the clear zone diameter [1, 5] was 15 mm, the MIC ([2]; broth microdilution, estimated) was over 50 µg/mL and the “antimicrobial activity / potency (in words)” value [2] was “reduced but detectable antimicrobial activity”. The “antimicrobial activity / potency (in words)” value ([2]; listed as monoacetate) was “active, albeit less potent than the diols or triol”.

`CC1=C2CC[C@@H](C)CC/C=C(/C)[C@@H]3CC[C@@](C)([C@H]13)[C@@H](O)[C@@H]2O` [Compound 9, 1(15),8(9)-trinervitadiene-2β,3α-diol] was tested, and the clear zone diameter [1, 5] was 15 mm, the minimum inhibitory concentration ([2]; as restated in the discussion) was at most 25 parts per million and the MIC ([2]; broth microdilution, estimated) was at most 25 µg/mL. For the same compound, the “antimicrobial potency relative to the triol (6) and diol (7)” value ([2]; fold more potent) was 2-4 times and the “significant inhibitory activity as low as” value ([2]; lowest concentration with significant inhibitory activity) was 12 parts per million.
